From patent US12285428B2 (IMBRIA PHARMACEUTICALS, INC., priority 2021, dated 2025)
Read-outs that look alike come from different tables or passages of the source.

What was measured:
[1] = human, in vivo, 200 mg
Method: On Day 13, subjects received a FDA-defined high-fat breakfast that had to be consumed within 20 minutes. […] Following dosing, subjects fasted for 4 hours until lunch. During fasting, fluids other than water were not allowed. Subjects were not allowed to lie down for 4 hours after dosing, except when required for assessments that needed to be performed.

[2] = human, in vivo
Method: (§1) Urine collection for PK was only conducted in the SAD part, but not in the second period of the FE group A4. […] The subjects were instructed to empty their bladders completely before study drug administration and at the end of each collection interval. A blank urine sample was collected within 12 hours prior to study drug administration. The exact times of urine collection and the urine weight of the entire interval (before and after addition of any urine stabilizers, if used) were recorded in the eCRF.

clinical [3] = settings: human, in vivo, po
Method: as §1

[4] = human, in vivo; remark: listed apart in the source
Method: Subjects received multiple oral doses of an IR formulation of IMB-1018972 or placebo once every 12 hours (q12h) for 14 consecutive days.
The doses were selected based upon the safety, tolerability, and PK data from the SAD part: • Group B1 multiple oral doses of an IR formulation of 150 mg IMB-1018972 (n=9) or matching placebo (n=3) twice daily (q12h) for 14 days; on Day 14 only a single morning dose was administered • Group B2: multiple oral doses of an IR formulation of 50 mg IMB-1018972 (n=9) or matching placebo (n=3) q12h for 14 days; on Day 14 only a single morning dose was administered
Before each morning dose, subjects fasted overnight for at least 10 hours following a snack on the evening before. On Days 1 and 14, subjects received a standardized breakfast that had to be consumed within 20 minutes. Dosing occurred at 30 minutes after the start of breakfast. Following dosing, subjects fasted for 4 hours until lunch. During fasting, fluids other than water were not allowed. On Days 2 to 13, breakfast was not standardized and was given within maximally 1 hour before dosing and consumed before dosing. No fasting after dosing was applicable on these days.
On all dosing days, an evening snack was given within maximally 1 hour before dosing and consumed before dosing.

[5] = FIH study, FE arm of SAD part: effect of food on plasma PK (150 mg IMB-1018972); settings: human, in vivo
Method: Subjects assigned to Group A4 also participated in the FE arm and received the same single dose of IMB-1018972 or placebo under fed conditions (Food and Drug Administration [FDA]-defined high-fat breakfast after an overnight fast of at least 10 hours) in a second period at least 1 week after drug administration under fasted conditions in the SAD part.
Then, subjects received an FDA-defined high-fat breakfast that had to be consumed within 20 minutes. The entire breakfast had to be consumed by the subjects. […] Following dosing, subjects fasted for 4 hours until lunch. During fasting, fluids other than water were not allowed.
For the second period of Group A4 in the FE arm, and for Day 13 of the single-dose MR part, the FDA-defined high-fat breakfast of 918 kcal consisted of: • 2 fried eggs (in 15 g butter/margarine) (approximately 100 g) • 1 portion of bacon (40 g) (or brie 60+ for vegetarians) • 1 portion of fried potatoes (115 g) • 2 slices of (toasted) (wheat) bread (approximately 70 g) with 15 g margarine • 1 glass of whole milk (240 mL) The total of 918 kcal (vegetarian version 915 kcal) could be broken down as follows: • 39 g protein=156 kcal • 59 g fat=527 kcal • 59 g carbohydrates=235 kcal Blinding

clinical [6] = settings: in vivo, po
Method: Before dosing (on Days 1, 4, 7, and 10 in the single-dose MR part), subjects fasted overnight for at least 10 hours following a light supper on the evening before. Following dosing, subjects fasted for 4 hours until lunch. During fasting, fluids other than water were not allowed; however, water was not allowed from 2 hours predose until 1 hour postdose (apart from the water taken with the dose).
The AUCs were calculated using the linear up/log down trapezoidal rule, expressed in units of concentration×time.
Subjects with R2 below 0.80 or % AUCextra>20% were not excluded from the dose-proportionality evaluation based on AUC0-inf. A point estimate and 95% CI were produced for the slope. […] Since there were only 2 dose levels in the MAD part, no dose-proportionality analysis was performed for the MAD part.

[7] = human, in vivo, po
[8] = FIH study, SAD part: PK in urine
Method: as §1

COc1ccc(CN2CCN(CCO)CC2)c(OC)c1OC [IMB-1028814, 2-[4-[(2,3,4-trimethoxyphenyl)methyl]piperazin-1-yl]ethanol]
Cmax higher after high-fat breakfast relative to fasted conditions [1]: approximately 42% | Effect of food on AUC0-inf: estimate (fed relative to fasted) [1]: 1.16 | Effect of food on AUC0-t: estimate (fed relative to fasted) [1]: 1.16 | Effect of food on Cmax: estimate (fed relative to fasted) [1]: 1.42 | Primary clearance mechanism [2]: metabolism | CL renal (clinical [3]): 62.7 to 89.5 mL/min | Geometric mean Cmax higher on Day 1 after 150 mg fed in the MAD part than after single 150 mg fed in the SAD part [4]: 97% | Cmax lower after high-fat breakfast relative to fasted conditions [5]: approximately 36% | Effect of food on AUC0-inf: estimate (fed relative to fasted) [5]: 1.12 | Effect of food on AUC0-t: estimate (fed relative to fasted) [5]: 1.12 | Effect of food on Cmax: estimate (fed relative to fasted) [5]: 0.64 | Tmax ([5]; Median tmax): 1 h | Time at which detectable plasma concentrations were generally seen (clinical [6]; human): 15 to 30 min | Tmax (clinical [6]; human): ~1 h | half-life (clinical [6]; human): 2.6 to 3 h | Tmax (clinical [6]; human, 50 mg): 0.5 to 1.02 h | Fashion of elimination (clinical [6]): biphasic | AUC0-t higher after the 8-hour MR formulation than after the 4-hour MR formulation [7]: 6% | AUC0-t lower after the 8-hour MR formulation than after the 4-hour MR formulation [7]: 26%

COc1ccc(CN2CCNCC2)c(OC)c1OC [trimetazidine, reference compound]
Geometric mean Cmax lower on Day 1 after 150 mg fed in the MAD part than after single 150 mg fed in the SAD part [4]: 32% | Time at which detectable plasma concentrations were generally seen (clinical [6]; human): 15 to 30 min | AUC0-t higher after the 8-hour MR formulation than after the 4-hour MR formulation [7]: 4% | AUC0-t lower after the 8-hour MR formulation than after the 4-hour MR formulation [7]: 12% | Primary clearance mechanism ([8]; concluded from urinary excretion): renal excretion | Renal handling (CLR greater than glomerular filtration rate, 7.5 L/h) ([8]; in vivo): net tubular secretion | Arithmetic mean percent of the dose excreted in urine as trimetazidine ([8]; within 48 hours after single oral 35 mg trimetazidine): 54.47%
